Data set [1] deals with IL-2. In words: Augmentation of IL-2 production following TCR activation of PBMC. The class given is cell-based.
Data set [2] has as its system IFN-γ. In words: Augmentation of IFN-γ production following TCR activation of T-cells. The format is cell-based.
For data set [3], the system named is IL-10. Nature of the data set: LPS-stimulated production of IL-10 by PBMC. The class given is cell-based.
For data set [4], the system named is Beagle dogs. In words: Cardiovascular and respiratory function in anesthetized dogs. Particulars: anesthetized Beagle dogs, 2, 10 and 20 mg/kg infusion via jugular vein, all doses.
For data set [5], the system named is T-cells. In words: Stimulation of T-cell proliferation following primary induction by TCR activation. The format is cell-based.
For data set [6] the following is noted: Form A: among anhydrous polymorphs; Form E: in aqueous solvent systems; cited from earlier work.

Regarding `Nc1cccc2c1CN(C1CCC(=O)NC1=O)C2=O` (stereo not shown), the “Potency relative to thalidomide in augmenting production of IL-2” value in data set [1] is recorded as 50-100 times. Besides, the “Potency relative to thalidomide in augmenting production of IFN-γ” value in data set [2] was 50-100 times. The “Effect on production of IL-10 by PBMC” value in data set [3] was “increased production”. Besides, the “Cardiovascular and respiratory changes compared to vehicle control” value in data set [4] is on record as “minimal”. Besides, the “Potency relative to thalidomide in stimulating proliferation of T-cells” value in data set [5] is 50-100 times.

For `Nc1cccc2c1CN(C1CCC(=O)NC1=O)C2=O` (stereo not shown) [Form A, 3-(4-amino-1-oxo-1,3 dihydro-isoindol-2-yl)-piperidene-2,6-dione], in data set [6], the “Relative stability of polymorph” value was “most thermodynamically stable anhydrous polymorph”.

With `Nc1cccc2c1CN(C1CCC(=O)NC1=O)C2=O` (stereo not shown) [Form E, 3-(4-amino-1-oxo-1,3 dihydro-isoindol-2-yl)-piperidene-2,6-dione], the “Relative stability of polymorph” value in data set [6] was “most stable form”.
